Data on four compounds can be found in patent US5153219A, “Thiocarbamate sulfoxide composition for deterring ethanol ingestion” (Faiman; Morris D., priority 1991, dated 1992).

Where two headings read alike, the source gives them in different places.

Assay [1] relates to liver mitochondrial low Km ALDH. The note with it: Hart et al., cited from earlier work; for dose at which 50% ALDH inhibition (ID50) occurred: intraperitoneal (IP) administration.
In assay [2] the target is T1, rat liver mitochondrial low Km ALDH (Rattus norvegicus, UniProt P11884).
T1 construct: Mitochondria were isolated from the liver of untreated rats; from tissue; host or cells: liver mitochondria of male Sprague-Dawley derived rats
T1 sequence (P11884 20-519): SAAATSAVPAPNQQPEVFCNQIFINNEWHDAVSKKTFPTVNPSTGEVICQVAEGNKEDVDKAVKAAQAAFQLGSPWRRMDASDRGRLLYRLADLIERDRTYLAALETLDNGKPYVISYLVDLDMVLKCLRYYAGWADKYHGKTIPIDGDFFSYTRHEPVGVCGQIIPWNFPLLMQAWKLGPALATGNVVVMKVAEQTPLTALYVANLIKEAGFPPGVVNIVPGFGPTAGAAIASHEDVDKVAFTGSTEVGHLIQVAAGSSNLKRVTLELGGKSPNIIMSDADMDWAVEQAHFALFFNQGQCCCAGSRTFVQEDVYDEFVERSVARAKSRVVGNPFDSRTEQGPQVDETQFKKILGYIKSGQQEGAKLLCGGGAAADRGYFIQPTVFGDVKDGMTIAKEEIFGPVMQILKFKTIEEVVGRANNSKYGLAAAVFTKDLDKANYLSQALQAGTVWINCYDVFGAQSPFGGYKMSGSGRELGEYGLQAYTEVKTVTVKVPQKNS
The experiment in a line: Liver aldehyde dehydrogenase determination in vivo after dosing rats. The note with it: for ED50: rat, 8 h, read-out: dose required to inhibit 50% of the low Km ALDH; for in vivo ALDH inhibition relative to comparators (in words): versus DETC-Me, disulfiram or other disulfiram metabolites. The method, then: 1. Drug Doses. Doses of DETC-Me SO studied were 1.3 mg/kg, 2.6 mg/kg, 5.2 mg/kg, 10.3 mg/kg and 20.6 mg/kg.
2. Animals. Male Sprague Dawley derived rats weighing 200-400 g were used. The rats were bred from a resident colony maintained in the Animals Care Unit at the University of Kansas. Rats were maintained on a 12-hour light-dark cycle with access to food and water ad lib until the night before an experiment, at which time food was removed. Animals were fasted for 12 hours prior to drug administration.
3. Timing. In these in vivo studies, rats were fasted 12 hours before beginning the experiment. All experiments were carried out in the morning. Rats were treated with the doses of DETC-Me SO or DETC-Me described above, which were dissolved in polyethylene glycol 200. Eight hours later, the rats were anesthetized with carbon dioxide and then decapitated. The liver was quickly removed and the low Km aldehyde dehydrogenase determined. Each data point on FIG. 4 represents an average of four rats. Control rats were treated with […] only, and each control data point also represents an average of four rats.
4. Aldehyde Dehydrogenase Determination. The liver from drug-treated and control rats was homogenized in 0.25M sucrose and differential centrifugation was carried out to isolate the mitochondrial fraction. The mitochondria were solubilized with sodium deoxycholate, and mitochondrial low Km and total (high and low) aldehyde dehydrogenase activity determined by the method of S.O.C. Tottmar et al., cited above.

In assay [3] the target is T1, rat liver mitochondrial low Km ALDH. The experiment in a line: In vitro inhibition of rat liver mitochondrial low Km ALDH (isolated mitochondria incubation). Format: biochemical. Here is the method:
1. Drug Concentration. Concentrations of DETC-Me sulfoxide ("DETC-Me SO") studied were 0.2 μM, 2.0 μM, 20 μM and 200 μM. Concentrations of DDTC-Me SO studied were 0.5 μM, 2.5 μM, 10 μM, 25 μM, 50 μM and 100 μM.
2. Animal Liver Preparation. Male Sprague-Dawley derived rats weighing 200-400 g were anesthetized with carbon dioxide and then decapitated. The livers from untreated rats were homogenized in 0.25M sucrose and differential centrifugation carried out to isolate the mitochondrial fraction. The mitochodria were solubilized with sodium deoxycholate, and mitochondrial low Km ALDH activity determined by the method of S.O.C. Tottmar et al., Biochem. J., 135, 577 (1973).
3. In Vitro Incubation. Mitochondria were isolated from the liver of untreated rats as described in section (2) and resuspended in 0.1M phosphate buffer (pH=7.4). Incubations contained 2 mg of mitochondrial protein, to which was added DETC-Me SO or DDTC-Me SO in the concentrations described above. The DETC-Me SO or DDTC-Me SO was dissolved in ethanol and the incubations carried out for one hour. Control incubations contained ethanol alone.
4. Aldehyde Dehydrogenase Analysis. At the end of the incubation, the mitochondria were isolated by centrifugation, resuspended in 0.25M sucrose buffer and solubilized with deoxycholate. Low Km ALDH activity was determined by the method of S.O.C. Tottmar et al., cited above.

In assay [4] the test system is liver mitochondrial low Km ALDH. As to conditions: Hart et al.; cited from earlier work.
Assay [5] in a line: Plasma acetaldehyde determination after ethanol challenge. Format: in vivo, rat. The note with it: male rats. Here is the method:
Rats maintained as described in Ex. 4, fasted for 18 hours, were given 10.3 mg/kg of the DETC-Me SO intraperitoneally, dissolved in polyethylene glycol 200 and then challenged eight hours later with a dose of ethanol (1 g/kg; 20% v/v) also administered intraperitoneally. The rats were anesthetized with phenobarbital 30 minutes after alcohol administration and blood was taken by aortic puncture, being drawn into a heparinized syringe. Plasma acetaldehyde was determined by the method of C.O.P. Eriksson et al., Anal. Biochem., 80, 116 (1977). Plasma concentrations were determined based on a standard curve obtained with known concentrations of acetaldehyde. Control rats were treated with 1 ml/kg of polyethylene glycol 200.

For orientation: inhibition means the drop in the measured response relative to a control, in per cent. With `CCN(CC)C(=O)SC` [DETC-Me, S-Methyl-N,N-Diethylthiolcarbamate], in assay [1], the “potency as inhibitor of liver mitochondrial low Km ALDH relative to DDTC-Me, DDTC or disulfiram (in words)” value was “more potent inhibitor” and the “dose at which 50% ALDH inhibition (ID50) occurred” value (“dose at which 50% ALDH inhibition” for short) was 6.5 mg/kg. Further, in assay [2] (ip), the ED50 amounted to 6.5 mg/kg. For the same compound, the inhibition at 200 µM in assay [3] (1 h, read-out: inhibition of rat liver mitochondrial low Km ALDH) was 8%. In addition, in assay [3], the “in vitro activity as inhibitor of low Km ALDH (in words)” value is reported as “not”. The “in vitro inhibition of liver mitochondrial low Km ALDH (in words)” value in assay [4] is recorded as “not an effective in vitro inhibitor”.

`CCN(CC)C(=O)[S+](C)[O-]` (stereo not drawn) [DETC-Me SO, S-Methyl-N,N-Diethylthiolcarbamate Sulfoxide]: the plasma acetaldehyde entry in assay [5] (10.3 mg/kg IP in polyethylene glycol 200, then 1 g/kg ethanol (20% v/v) IP, FIG. 5) was “approximately 900 μM”. Besides, the “effect on plasma acetaldehyde after an ethanol challenge (in words)” value in assay [5] (10.3 mg/kg IP, 1 g/kg ethanol IP) is listed as “markedly increase plasma acetaldehyde”. Further, the “in vivo ALDH inhibition relative to comparators (in words)” value is on record as “substantially more potent” in assay [2] and “about twice as effective” in assay [2] (listed as DETC-Me sulfoxide). The ED50 in assay [2] (male rats, intraperitoneal (IP), liver taken eight hours after dosing, FIG. 4) was 3.6 mg/kg. Further, the “in vitro activity as inhibitor of low Km ALDH (in words)” value in assay [3] is “extremely potent inhibitor”; in assay [3] (listed as DETC-Me sulfoxide) it was “active in vitro”.

With `CCN(CC)C(=S)SC` [DDTC-Me, diethyldithiocarbamate-methyl ester], the “dose at which 50% ALDH inhibition” value in assay [1] is reported as 15.5 mg/kg.

As to `CCN(CC)C(=S)SSC(=S)N(CC)CC` [disulfiram, tetraethylthiuram disulfide], the “dose at which 50% ALDH inhibition” value in assay [1] was 56.2 mg/kg.
